Experimental data taken from the supplement of paper PMC7017272.
± gives the standard deviation of the averaged measurements.

Experiments:
[1] = tested on: UT-SCC-24A; assay: maximal % inhibition of viability relative to DMSO; higher = stronger effect; conditions: treatment time: 3 days
Description: (§1)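 HNSCC cell lines (500 cells/well, 384-well) were cultured on plastic, on top of (2D) or embedded (3D) in Matrigel or human leiomyoma matrix Myogel (500 ug/mL; Myogel 3D mixed with rat collagen I). Cells were treated for 3 days with 5 ten-fold concentrations of each drug, and viability was read by CellTiter-Glo. Viability was normalised to DMSO (0% inhibition) and 100 uM benzethonium chloride (100% inhibition) controls and fitted with the FIMM DSRT pipeline to give IC50 (nM), maximal % inhibition and the drug sensitivity score (DSS). Suffixes _1/_2/_3 on drug names are replicates.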

[2] = tested on: UT-SCC-28; assay: relative IC50 (midpoint of the fitted curve; maximal inhibition may be below 50%); higher = less potent; conditions: treatment time: 3 days
Outline: (§2)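 HPV-negative HNSCC cell lines were plated at 500 cells/well in 384-well plates, either on plastic, on wells coated with Matrigel or Myogel (500 µg/mL), or embedded in Matrigel or Myogel plus rat collagen I. Each compound was tested at five 10-fold concentrations over 3 days. Viability was measured by CellTiter-Glo 2.0 luminescence, and IC50, maximal inhibition and drug sensitivity score came from percent-inhibition dose–response curves fitted in the FIMM pipeline after normalisation to vehicle (0.1% DMSO) and cell-killing control wells.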

[3] = tested on: UT-SCC-81; assay: as above; conditions: culture condition: embedded in Myogel + collagen I; treatment time: 3 days
Outline: as §2

[4] = tested on: UT-SCC-24A; assay: relative IC50 (midpoint of the fitted curve; maximal inhibition may be below 50%); higher = less potent; conditions: treatment time: 3 days
Description: as §1

[5] = tested on: UT-SCC-28; assay: drug sensitivity score (DSS); higher = more sensitive; extreme values may be limits of the assay; conditions: treatment time: 3 days
Outline: as §2

[6] = tested on: UT-SCC-40; assay: as above; conditions: treatment time: 3 days
Outline: as §2

[7] = tested on: UT-SCC-8; assay: as above; conditions: treatment time: 3 days
Outline: as §2

[8] = tested on: UT-SCC-81; assay: as above; conditions: treatment time: 3 days
Outline: as §2

[9] = tested on: UT-SCC-42A; assay: as above; conditions: treatment time: 3 days
Outline: as §2

[10] = tested on: UT-SCC-106A; assay: as above; conditions: treatment time: 3 days
Outline: as §2

[11] = tested on: UT-SCC-24B; assay: as above; conditions: treatment time: 3 days
Outline: as §2

[12] = tested on: UT-SCC-42B; assay: as above; conditions: treatment time: 3 days
Outline: as §2

[13] = tested on: UT-SCC-14; assay: as above; conditions: treatment time: 3 days
Outline: as §2

[14] = tested on: UT-SCC-73; assay: as above; conditions: treatment time: 3 days
Outline: as §2

[15] = tested on: UT-SCC-44; assay: as above; conditions: treatment time: 3 days
Outline: as §2

[16] = tested on: UT-SCC-42A; assay: relative IC50 (midpoint of the fitted curve; maximal inhibition may be below 50%); higher = less potent; conditions: culture condition: embedded in Matrigel; treatment time: 3 days
Outline: as §2

[17] = culture condition: embedded in Matrigel
[18] = culture condition: embedded in Myogel + collagen I
[19] = culture condition: on top of Matrigel
[20] = culture condition: on top of Myogel
[21] = culture condition: plastic 2D (no matrix)

In the case of `C#Cc1cccc(Nc2ncnc3cc(OCCOC)c(OCCOC)cc23)c1` [Erlotinib], the “maximal % inhibition of viability” value [1, 17] is reported as 65.2 ± 8%, the “maximal % inhibition of viability” value [1, 18] is reported as 27.5 ± 6.3% and the “maximal % inhibition of viability” value [1, 19] is reported as 50.9 ± 7.2%. For the same compound, the “maximal % inhibition of viability” value [1, 20] was 7.53 ± 1.6%, the “maximal % inhibition of viability” value [1, 21] was 30.6 ± 5% and the “relative IC50” value [2, 17] was greater than 9.89 µM. For the same compound, the “relative IC50” value [3] was greater than 9.89 µM, the “relative IC50” value [4, 18] was 1.56 µM and the “relative IC50” value [4, 19] was 0.86 µM. For the same compound, the “relative IC50” value [4, 20] was greater than 9.89 µM, the “relative IC50” value [4, 21] was 0.855 µM and the drug sensitivity score [5, 17] was 0 DSS. For the same compound, the drug sensitivity score [5, 18] was 1.27 ± 2.2 DSS, the drug sensitivity score [5, 19] was 0 DSS and the drug sensitivity score [5, 21] was 0 DSS. For the same compound, the drug sensitivity score [6, 17] was 0.333 ± 0.31 DSS, the drug sensitivity score [6, 18] was 1.97 ± 3.4 DSS and the drug sensitivity score [6, 19] was 0 DSS. For the same compound, the drug sensitivity score [6, 20] was 0 DSS, the drug sensitivity score [6, 21] was 0.0333 ± 0.058 DSS and the drug sensitivity score [7, 17] was 7.57 ± 0.46 DSS. The drug sensitivity score [7, 18] was 0 DSS, the drug sensitivity score [7, 19] was 5.63 ± 0.65 DSS and the drug sensitivity score [7, 20] was 3.4 ± 2.5 DSS. For the same compound, the drug sensitivity score [7, 21] was 4.2 ± 1.1 DSS, the drug sensitivity score [8, 17] was 10.4 ± 3.8 DSS and the drug sensitivity score [8, 18] was 0 DSS. For the same compound, the drug sensitivity score [8, 19] was 5.17 ± 2.1 DSS, the drug sensitivity score [8, 20] was 0 DSS and the drug sensitivity score [8, 21] was 0.2 ± 0.27 DSS. The drug sensitivity score [9, 17] was 1.47 ± 2 DSS, the drug sensitivity score [9, 18] was 0 DSS and the drug sensitivity score [9, 19] was 2.73 ± 2.8 DSS. It also gave a drug sensitivity score [9, 20] of 0.1 ± 0.1 DSS, a drug sensitivity score [9, 21] of 1.73 ± 1.5 DSS and a drug sensitivity score [10, 17] of 1.43 ± 0.8 DSS. For the same compound, the drug sensitivity score [10, 18] was 0 DSS, the drug sensitivity score [10, 19] was 1.53 ± 2.1 DSS and the drug sensitivity score [10, 20] was 0 DSS. For the same compound, the drug sensitivity score [10, 21] was 1.97 ± 1.7 DSS, the drug sensitivity score [11, 17] was 11.3 ± 1 DSS and the drug sensitivity score [11, 18] was 8.03 ± 3 DSS. It also gave a drug sensitivity score [11, 19] of 10.4 ± 0.51 DSS, a drug sensitivity score [11, 20] of 3.97 ± 0.21 DSS and a drug sensitivity score [11, 21] of 15.2 ± 1.4 DSS. For the same compound, the drug sensitivity score [12, 17] was 2.4 ± 1.4 DSS, the drug sensitivity score [12, 19] was 1 ± 1.7 DSS and the drug sensitivity score [12, 20] was 0 DSS. For the same compound, the drug sensitivity score [12, 21] was 0 DSS, the drug sensitivity score [13, 17] was 1.73 ± 0.57 DSS and the drug sensitivity score [13, 18] was 0.0333 ± 0.058 DSS. For the same compound, the drug sensitivity score [13, 19] was 0.4 ± 0.69 DSS, the drug sensitivity score [13, 20] was 0.733 ± 1.3 DSS and the drug sensitivity score [13, 21] was 0.9 ± 1.6 DSS. For the same compound, the drug sensitivity score [14, 17] was 0.3 ± 0.3 DSS, the drug sensitivity score [14, 18] was 1.17 ± 2 DSS and the drug sensitivity score [14, 19] was 0 DSS. The drug sensitivity score [14, 20] was 0.233 ± 0.4 DSS, the drug sensitivity score [14, 21] was 0 DSS and the drug sensitivity score [15, 17] was 0 DSS. The drug sensitivity score [15, 18] was 0.133 ± 0.23 DSS, the drug sensitivity score [15, 19] was 0 DSS and the drug sensitivity score [15, 20] was 0.0667 ± 0.12 DSS. For the same compound, the drug sensitivity score [15, 21] was 0.0667 ± 0.12 DSS.

`COc1ccc(-c2cc3c(C)nc(N)nc3n([C@H]3CC[C@H](OCCO)CC3)c2=O)cn1` was tested, and the “maximal % inhibition of viability” value [1, 17] was 79.2 ± 19%, the “maximal % inhibition of viability” value [1, 18] was 61.6 ± 18% and the “maximal % inhibition of viability” value [1, 19] was 71.5 ± 12%. The “maximal % inhibition of viability” value [1, 20] was 54.5 ± 16%, the “maximal % inhibition of viability” value [1, 21] was 72.1 ± 23% and the “relative IC50” value [2, 19] was 0.118 µM. The “relative IC50” value [16] was 1.81 µM, the drug sensitivity score [5, 17] was 10.5 ± 5.4 DSS and the drug sensitivity score [5, 18] was 6.7 ± 5 DSS. It also gave a drug sensitivity score [5, 19] of 13.8 ± 2.3 DSS, a drug sensitivity score [5, 21] of 11.5 ± 1.7 DSS and a drug sensitivity score [6, 17] of 13.4 ± 5.6 DSS. The drug sensitivity score [6, 18] was 11.5 ± 5.7 DSS, the drug sensitivity score [6, 19] was 12.1 ± 5.5 DSS and the drug sensitivity score [6, 20] was 8.77 ± 3.4 DSS. The drug sensitivity score [6, 21] was 8.4 ± 3.7 DSS, the drug sensitivity score [7, 17] was 11.4 ± 2.5 DSS and the drug sensitivity score [7, 18] was 4.97 ± 1.8 DSS. The drug sensitivity score [7, 19] was 10.9 ± 3.1 DSS, the drug sensitivity score [7, 20] was 10.9 ± 3.6 DSS and the drug sensitivity score [7, 21] was 10.4 ± 2.7 DSS. For the same compound, the drug sensitivity score [8, 17] was 23.6 ± 11 DSS, the drug sensitivity score [8, 18] was 14.2 ± 7.1 DSS and the drug sensitivity score [8, 19] was 15.9 ± 7.3 DSS. The drug sensitivity score [8, 20] was 13.6 ± 6.6 DSS, the drug sensitivity score [8, 21] was 14.4 ± 8.1 DSS and the drug sensitivity score [9, 17] was 5.87 ± 2.1 DSS. The drug sensitivity score [9, 18] was 5.73 ± 2.2 DSS, the drug sensitivity score [9, 19] was 7.63 ± 4.4 DSS and the drug sensitivity score [9, 20] was 6.6 ± 2.3 DSS. The drug sensitivity score [9, 21] was 7.97 ± 3.2 DSS, the drug sensitivity score [10, 17] was 17.5 ± 1.9 DSS and the drug sensitivity score [10, 18] was 9.13 ± 3.2 DSS. For the same compound, the drug sensitivity score [10, 19] was 15 ± 3.7 DSS, the drug sensitivity score [10, 20] was 8.9 ± 4.4 DSS and the drug sensitivity score [10, 21] was 15.3 ± 3 DSS. For the same compound, the drug sensitivity score [11, 17] was 15.4 ± 3.6 DSS, the drug sensitivity score [11, 18] was 19.8 ± 1.6 DSS and the drug sensitivity score [11, 19] was 16.1 ± 1.8 DSS. For the same compound, the drug sensitivity score [11, 20] was 13.9 ± 1.9 DSS, the drug sensitivity score [11, 21] was 16.6 ± 3.5 DSS and the drug sensitivity score [12, 17] was 10.2 ± 4.3 DSS. For the same compound, the drug sensitivity score [12, 19] was 1.8 ± 1.7 DSS, the drug sensitivity score [12, 20] was 1 ± 0.87 DSS and the drug sensitivity score [12, 21] was 0.967 ± 0.58 DSS. It also gave a drug sensitivity score [13, 17] of 14.9 ± 7.8 DSS, a drug sensitivity score [13, 18] of 8.67 ± 4.7 DSS and a drug sensitivity score [13, 19] of 12.8 ± 5.7 DSS. The drug sensitivity score [13, 20] was 9.9 ± 2.5 DSS, the drug sensitivity score [13, 21] was 9.5 ± 2 DSS and the drug sensitivity score [14, 17] was 16 ± 2.9 DSS. It also gave a drug sensitivity score [14, 18] of 12.1 ± 4.3 DSS, a drug sensitivity score [14, 19] of 13.9 ± 2.8 DSS and a drug sensitivity score [14, 20] of 12.7 ± 3 DSS. The drug sensitivity score [14, 21] was 12.6 ± 4.8 DSS, the drug sensitivity score [15, 17] was 10.5 ± 1.6 DSS and the drug sensitivity score [15, 18] was 4.07 ± 2.6 DSS. For the same compound, the drug sensitivity score [15, 19] was 8.07 ± 0.71 DSS, the drug sensitivity score [15, 20] was 4.63 ± 1.3 DSS and the drug sensitivity score [15, 21] was 5.7 ± 0.1 DSS.
